Results as given in PubChem BioAssay (NCI).
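Interpolation was linear, between the two tested concentrations surrounding the appropriate level; five concentrations were tested over 48 hours in 96-well plates. GI50 = concentration required for 50% inhibition of growth. Definition used: TGI = concentration required for complete inhibition of growth.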

How the values were obtained:
Assay in all cases: inhibition of tumour cell growth, NCI panel, 48 h
[1] = tested on: A498 renal
[2] = tested on: HCC-2998 colon
[3] = tested on: HCT-116 colon
[4] = tested on: HL-60(TB) leukemia
[5] = tested on: IGROV1 ovarian
[6] = tested on: M14 melanoma
[7] = tested on: SF-268 CNS
[8] = tested on: SK-MEL-28 melanoma
[9] = tested on: UACC-257 melanoma
[10] = tested on: MALME-3M melanoma

| SMILES | GI50 [1] [µM] | TGI [1] [µM] | GI50 [2] [µM] | TGI [2] [µM] | GI50 [3] [µM] | TGI [3] [µM] | GI50 [4] [µM] | TGI [4] [µM] | GI50 [5] [µM] | TGI [5] [µM] | GI50 [6] [µM] | TGI [6] [µM] | GI50 [7] [µM] | TGI [7] [µM] | GI50 [8] [µM] | TGI [8] [µM] | GI50 [9] [µM] | TGI [9] [µM] | TGI [10] [µM] | GI50 [10] [µM] |
| --- | --- | --- | --- | --- | --- | --- | --- | --- | --- | --- | --- | --- | --- | --- | --- | --- | --- | --- | --- | --- |
| COc1ccc(-c2c(C#N)c(N3CCOCC3)nc3[nH]c(=S)[nH]c(=S)c23)cc1OC | > 100 | > 100 | 36 | > 100 | 27.8 | > 100 | 36.2 | > 100 | > 100 | > 100 | 81.6 | > 100 | 31.6 | > 100 | > 100 | > 100 | > 100 | > 100 |  |  |
| O=c1[nH]c(O)c(C=Nc2ccc(-c3nc4ccccc4o3)cc2)c(=O)[nH]1 |  |  |  |  | 93.6 | > 100 | 81.9 | > 100 | > 100 | > 100 | 50.8 | > 100 | > 100 | > 100 | 16.6 | 47 | 58.4 | > 100 |  |  |
| CCCCCCCCc1cc2c(O)c(c1)Cc1cc(CCCCCCCC)cc(c1O)Cc1cc(CCCCCCCC)cc(c1O)Cc1cc(CCCCCCCC)cc(c1O)Cc1cc(CCCCCCCC)cc(c1O)Cc1cc(CCCCCCCC)cc(c1O)C2 |  | > 100 |  | > 100 |  | > 100 |  | > 100 |  | > 100 |  |  |  | > 100 |  | > 100 |  | > 100 | > 100 |  |
| NC(N)=Nc1nc2ccccc2o1 |  |  |  |  | > 100 | > 100 | > 100 | > 100 | > 100 | > 100 | > 100 | > 100 | > 100 | > 100 | > 100 | > 100 | 21.2 | > 100 | > 100 | > 100 |
| CCOC(=O)C(Br)=C1OC(=O)c2ccccc2-c2ccccc21 (mixture of isomers) |  |  |  | 38 |  | 34 |  | 35 |  | 34.4 |  | 37.1 |  | 88.3 |  | 37.8 |  | 48 | 37.6 |  |
| O=C(c1ccc([N+](=O)[O-])cc1[N+](=O)[O-])N(/N=C/C=C/c1ccccc1)c1nnc(-c2ccccc2)c(-c2ccccc2)n1 |  | 95.2 |  | > 100 |  |  |  | 51.6 |  | > 100 |  | > 100 |  | > 100 |  | 68.6 |  | > 100 | > 100 |  |
| COc1ccc(-c2cc(=O)oc3c4c(ccc23)OCN(Cc2ccc(F)cc2)C4)cc1 | 1.23 | 10.3 | 19.2 | 37 | 13.6 | 27.7 | 23.2 | 57.4 | 20.5 | 51.5 |  |  | 16.6 | 34.8 | 15.1 | 30.7 | 14.9 | 29.9 | 32.7 | 15.4 |
| CCSc1nc(N=Cc2ccccc2O)c2cn[nH]c2n1 | 4.61 | 29.2 |  |  | 25.7 | > 100 |  |  | 40.9 | > 100 | 17.4 | 33 | 23.9 | 77.4 | 33 | > 100 | 56.7 | > 100 | 34.7 | 0.137 |
| COc1cc(C[P+](c2ccccc2)(c2ccccc2)c2ccccc2)cc(OC)c1OC |  |  |  | > 100 |  | > 100 |  | > 100 |  | > 100 |  | > 100 |  | > 100 |  | > 100 |  | > 100 | > 100 |  |
| NCCCn1c2c(c3ccc([N+](=O)[O-])cc3c1=O)C(=O)c1cc(I)ccc1-2 | 3.02 | 7.72 | 0.307 | 1.71 | < 0.01 | 0.201 | < 0.0176 | 0.0733 |  |  | 0.0315 | 1.32 | 0.0841 | 3.43 |  |  | 1.1 | 2.55 | 1.86 | 0.228 |
| O=S(=O)(OI(OI(OS(=O)(=O)C(F)(F)F)c1ccccc1)c1ccccc1)C(F)(F)F |  | > 100 |  | > 100 |  | > 100 |  | 36.5 |  | > 100 |  | > 100 |  | > 100 |  |  |  |  | > 100 |  |
| CCCN(CCC)c1c([N+](=O)[O-])cc(C(=O)N(CC)CC)cc1[N+](=O)[O-] |  |  |  | > 100 |  | 27.2 |  | 50.8 |  | > 100 |  | 79.5 |  | > 100 |  | 64.6 |  | 43.3 | 40.5 |  |
| COc1nc(=O)n(C2C=CC(=O)O2)cc1F (centres undefined) | 16.2 | 38.1 | 12.9 | 25.5 | 2.05 | 4.81 |  |  | 8.69 | 23.2 | 5.82 | 20.6 | 15.5 | 37.3 | 6.92 | 20.1 | 11.6 | 31.4 | 6.95 | 1.8 |
| CN(Cc1cnc2nc(N)nc(N)c2n1)c1ccc(C(=O)N[C@@H](CCS(=O)(=O)O)C(=O)O)cc1 |  | > 100 |  | > 100 |  |  |  |  |  | > 100 |  | > 100 |  | > 100 |  | > 100 |  | > 100 | > 100 |  |
| O=C1C=C(c2c(O)ccc3ccccc23)c2cc(O)ccc2C1=O |  |  |  | 33.6 |  | 30.1 |  |  |  | 30.3 |  | 29.9 |  | 32.6 |  | 36 |  | 33.1 | 34.2 |  |
| Cc1nc2sccn2c1-c1nc2sccn2c1/C=C1/C(=O)Nc2ccccc21 | 2.04 | 8.26 | 8.3 | 29.8 | 3.3 | 30 |  |  | 1.92 | 7.77 | 3.99 | > 100 | 6.18 | 33.1 | 5.42 | 46.2 | 16.3 | 91.9 | 70.5 | 3.26 |
| O=c1cccc(C#CC#C[C@@H]2O[C@H]2CO)o1 | 17.7 | 33.3 | 0.217 | 0.55 | 0.274 |  | 3.12 | > 100 | 0.183 | 0.339 | 0.414 |  | 1.78 | 3.91 | 0.27 | 1.36 | 2.17 | 4.52 |  |  |
